Data: ChEMBL document CHEMBL1201862, “PubChem BioAssay data set” (2004)
Activity calls are given as the source filed them.

Legend:
[1] = Luminescence Cell-Based Dose Response HTS to Identify Activators of 5'UTR Stem-Loop Driven Prion Protein mRNA Translation in H4-C Neuroglioblastoma Cells. [Related pubchem assays: 1829 (Project Summary), 1814 (Primary HTS)]; assay type: functional
[2] = Luminescence Cell-Based Dose Response HTS to Identify Activators of Luciferase Translation or Activity in H4-C Neuroglioblastoma Cells. [Related pubchem assays: 1829 (Project Summary), 1814 (Primary HTS)]; assay type: functional
[3] = Luminescence Cell-Based Dose Response HTS to Identify Inhibitors of Luciferase Translation or Activity in H4-C Neuroglioblastoma Cells. [Related pubchem assays: 1813 (Primary HTS), 1827 (Project Summary)]; assay type: functional
[4] = Luminescence Cell-Based Dose Retest to Confirm Activators of 5'UTR Stem-Loop Driven Alpha-Synuclein mRNA Translation in H4 Neuroglioblastoma Cells. [Related pubchem assays (depositor defined):AID1813, AID1829]; assay type: functional
[5] = Luminescence Cell-Based Dose Confirmation HTS to Identify Inhibitors of 5'UTR Stem-Loop Driven Alpha-Synuclein mRNA Translation in H4 Neuroglioblastoma Cells. [Related pubchem assays: 1827 (Project Summary), 1813 (Primary HTS)]; assay type: functional
[6] = Luminescence Cell-Based Dose HTS Response to Identify Inhibitors of 5'UTR Stem-Loop Driven Prion Protein mRNA Translation in H4-C Neuroglioblastoma Cells. [Related pubchem assays (depositor defined):AID1814, AID1827]; assay type: functional
Nonstructural protein 1 = Nonstructural protein 1 (Influenza A virus, UniProt Q194T2); assay type: functional, Influenza A virus (A/California/07/2009(H1N1))
Mucolipin-3 = Mucolipin-3 (Homo sapiens, UniProt Q8TDD5); experiment: Fluorescence counterscreen assay for […] agonists: dose response cell-based high-throughput screening assay to identify agonists of the transient receptor potential channel ML3 (TRPML3). [Related pubchem assays: 1424, 1448 ]; assay type: functional
Ion channel NompC = Ion channel NompC (Danio rerio, UniProt Q7T1G6); experiment: Dose response cell-based high-throughput screening assay for agonists of the transient receptor potential channel N1 (TRPN1). [Related pubchem assays (depositor defined):AID1424, AID1448]; assay type: functional
[7] = target: T1, Ubiquitin-conjugating enzyme E2 N (Homo sapiens, UniProt P61088); assay type: functional
T1 sequence (P61088 whole entry): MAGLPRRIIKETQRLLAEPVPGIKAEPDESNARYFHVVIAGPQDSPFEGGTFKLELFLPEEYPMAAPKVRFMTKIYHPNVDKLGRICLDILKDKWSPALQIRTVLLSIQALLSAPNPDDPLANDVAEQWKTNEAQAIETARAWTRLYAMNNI

[8] = target: T1, Ubiquitin-conjugating enzyme E2 N; assay type: functional; remark: listed apart in the source
Bcl-2-related protein A1 = target: T2, Bcl-2-related protein A1 (Mus musculus, UniProt Q07440); assay type: functional;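 also: confirmatory dose–response counterscreen on Bfl-1, used to check hits from a UBC13 polyubiquitin inhibitor campaign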
T2 sequence (Q07440 whole entry): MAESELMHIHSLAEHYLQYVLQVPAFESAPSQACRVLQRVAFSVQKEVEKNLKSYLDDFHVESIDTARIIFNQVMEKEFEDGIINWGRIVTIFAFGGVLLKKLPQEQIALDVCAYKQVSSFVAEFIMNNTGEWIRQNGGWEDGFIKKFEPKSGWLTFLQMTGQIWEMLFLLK

[9] = target: Peroxisome proliferator-activated receptor gamma/Nuclear receptor coactivator 3 (Homo sapiens, UniProt P37231); experiment: TR-FRET dose response biochemical High Throughput Screening assay for agonists of the steroid receptor coactivator 3 (SRC-3) recruitment by the peroxisome proliferator-activated receptor gamma (PPAR gamma): non-selective agonists. [Related pubchem assays: 1301 (Confirmation screen.), 1048 (Primary screen.)]; assay type: functional
[10] = target: Peroxisome proliferator-activated receptor gamma/Nuclear receptor coactivator 2 (Homo sapiens, UniProt P37231); experiment: (§1) TR-FRET dose response biochemical High Throughput Screening assay for agonists of the steroid receptor coactivator 2 (SRC-2) recruitment by the peroxisome proliferator-activated receptor gamma (PPAR gamma): non-selective agonists. [Related pubchem assays: 1297, 1032 ]; assay type: functional
[11] = target: Peroxisome proliferator-activated receptor gamma/Nuclear receptor coactivator 1 (Homo sapiens, UniProt P37231); experiment: as §1, with “1 (SRC-1)” for “2 (SRC-2)”, “assays (depositor defined):AID1300, AID1808, AID504735, AID631]” for “assays: 1297, 1032 ]”; assay type: protein assay

**Q.** Which EC50 [1] does the source give for `Oc1ccccc1/N=N/c1ccccc1O` here?
**A.** 399 nM (inconclusive)

**Q.** What about the EC50 [2] of the same compound?
**A.** 929 nM (inconclusive)

**Q.** And the EC50 [3]?
**A.** 1.36 µM (active)

**Q.** What about the EC50 [4] of the same compound?
**A.** 1.77 µM (inconclusive)

**Q.** What about the EC50 [5] of the same compound?
**A.** 1.7 µM (active)

**Q.** And the EC50 [6]?
**A.** 1.09 µM (active)

**Q.** What does the source list for `CCN1C(=O)/C(=C/C=C2\N(CC)c3cc(S(=O)(=O)N(C)C)ccc3N2c2ccccc2)SC1=S`?
**A.** IC50 (Nonstructural protein 1): 55.3 µM (active); EC50 (Mucolipin-3): > 29.9 µM (not active); EC50 (Ion channel NompC): 1.62 µM (active)

**Q.** What does the source list for `CCOc1ccc(-c2csc(NC(=O)c3cccc(N4C(=O)CCC4=O)c3)n2)cc1`?
**A.** IC50 [7]: > 20 µM (inactive); IC50 [8]: 15.7 µM (active); IC50 (Bcl-2-related protein A1): > 20 µM (inactive)

**Q.** Which EC50 [9] does the source give for `COCCNc1nc2ccccc2nc1NS(=O)(=O)c1ccc(C)cc1C` here?
**A.** > 79.4 µM (not active)

**Q.** And the EC50 [10]?
**A.** > 79.4 µM (not active)

**Q.** And the EC50 [11]?
**A.** > 79.4 µM (inactive)
